Measured values published in PMC6326535, “Total Synthesis of Xanthoangelol B and Its Various Fragments: Toward Inhibition of Virulence Factor Production of Staphylococcus aureus” (Journal of Medicinal Chemistry, 2018).
Where two headings read alike, the source gives them in different places.

Key:
[1] = molecular target: kinase domain of SaeS (Staphylococcus aureus, UniProt Q840P7); test: biochemical
Method: Next, we attempted to measure the direct binding of 1 and PM-56 with SaeS using the intrinsic fluorescence quenching assay. Since SaeS contains seven Tyr (and zero Trp) residues, the Tyr fluorescence at 306 nm was monitored before and after binding of 1 and PM-56. The reduction of fluorescence upon ligand binding was expressed as the percent fluorescence quenching, and the Kd value was calculated by nonlinear regression fitting (Figure S9).
Purified recom binant SaeS (1 µM ) w as incubated w ith various concentrations
of ei t her (A ) 1 or (B ) PM-56 for 15 m in at room tem perature. U pon excitation at 276 nm,
reductions of SaeS intensities at an emission peak of 306 nm w ere recorded and plotted against the
chem ical concentrations. D ata points were averaged from three independent m easurem ents and
expressed as m eans (dots) ± standard deviations of m eans (w hiskers). Solid lines represent the […]
The intrinsic fluorescence quenching assay to determine the binding affinities of […]
fluorescence of t h e kinase dom ain of SaeS w as recorded at an emission peak of 306 nm upon […]
Eclipse fluorescence spectrophotom eter (A gilent Technologies, U SA ). […]
chem icals but w ithout SaeS w ere used as blanks for correcting the fluorescence intensities. […]
by plotting the reductions of SaeS fluorescence intensity at each chem ical treatm ent against the […]

[2] = system: SaeRS TCS; test: microbe, parasite or virus in culture; assay type: cell-based, Staphylococcus aureus USA300; details: for IC50 / IC90: Staphylococcus aureus; for IC50: USA300, 8 h, read-out: IC50 against the SaeRS GFP reporter; for IC90: read-out: IC90 for the SaeRS GFP reporter; for inhibition of the SaeRS TCS: at 20 μM
[3] = system: saeS knockout S. aureus; assay type: in vivo, Galleria mellonella; details: for reduction in CFU compared to the wild type infection group: saeS knockout infection, after 72 h
[4] = system: HeLa cells; test: LDH release cytotoxicity assay; assay type: cell-based; details: for IC50: Homo sapiens, HeLa, 72 h, read-out: IC50 for HeLa cell survival
[5] = molecular target: SaeS phosphotransferase (PT) activity (Staphylococcus aureus, UniProt Q840P7); assay type: biochemical; details: radioactively phosphorylated SaeS in the presence of SaeR
SaeS phosphotransferase (PT) activity, sequence (Q840P7 118-351): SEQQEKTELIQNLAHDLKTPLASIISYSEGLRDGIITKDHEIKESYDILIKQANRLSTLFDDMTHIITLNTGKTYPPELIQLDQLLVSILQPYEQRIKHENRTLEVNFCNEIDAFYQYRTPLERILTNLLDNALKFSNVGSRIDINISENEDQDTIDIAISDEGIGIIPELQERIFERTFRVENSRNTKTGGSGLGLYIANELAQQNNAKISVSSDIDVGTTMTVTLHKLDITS

[6] = molecular target: minimal kinase domain of SaeS / MBP-SaeS (Staphylococcus aureus, UniProt Q840P7); assay type: binding; details: 1.0 mM compound, 0.1 mM SaeS or 30 μM MBP-SaeS
minimal kinase domain of SaeS / MBP-SaeS, sequence (Q840P7 118-351): as above

[7] = system: S. aureus USA300; assay type: in vivo, Galleria mellonella; details: for bacterial burden compared to the vehicle control: dose of approximately 1 mg/kg
[8] = system: methicillin-resistant S. aureus USA300; test: cells; assay type: cell-based, Staphylococcus aureus
[9] = system: HeLa cells
[10] = system: hla, aur, γ-hemolysin, staphylokinase, sarA; assay type: cell-based, Staphylococcus aureus
[11] = system: S. aureus USA300; assay type: in vivo, Galleria mellonella; details: 72 h; for survival compared to the vehicle control: 5 × 10^6 CFU
[12] = molecular target: AgrC (Staphylococcus aureus, UniProt O07911); assay type: biochemical; details: for IC50: 5 μM protein, autokinase activity
AgrC, sequence (O07911 206-430 limits assumed): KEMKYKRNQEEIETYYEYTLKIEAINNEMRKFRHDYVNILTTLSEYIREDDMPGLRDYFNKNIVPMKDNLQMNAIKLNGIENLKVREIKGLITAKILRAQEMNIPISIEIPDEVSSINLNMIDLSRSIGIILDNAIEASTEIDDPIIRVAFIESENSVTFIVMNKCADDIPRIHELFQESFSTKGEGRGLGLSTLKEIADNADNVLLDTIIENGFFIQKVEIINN

[13] = molecular target: minimal kinase domain of SaeS (Staphylococcus aureus, UniProt Q840P7); test: biochemical
minimal kinase domain of SaeS, sequence (Q840P7 118-351): as the sequence (Q840P7 118-351) above

[14] = system: S. aureus USA300; details: for growth of S. aureus: at (up to) 64 μM, up to 20 h; for bacterial growth: 8 h
Method: Figure 1 Various concentrations of compounds were used to treat the USA300-Phlam GFP strain, and GFP expression was analyzed at 8 h. […] All the experiments were performed in triplicates, and significance was compared with control (no treatment) using one-way ANOVA.
56 at the concentration in the range from 2 μM to 64 μM. The cell density w as m onitored as the
optical density at 600 nm.
B act eri al growt h for 8 h i n t he presence of PM-56; C, B acterial growth for 20 h in the presence of
xant hoangel ol B 1; D, B act eri al growt h for 20 hours i n t he presence of PM-56. All the experi m ents
were perform ed in triplicates.

[15] = system: Gram-positive bacteria; details: cited from earlier work
[16] = parameters: method as in PMID 22452965; details: mice, single dose study; cited from earlier work
[17] = Staphylococcus aureus, USA300, Erythrocyte, 8 h, read-out: IC50 for the inhibition of erythrocyte hemolysis, human RBCs, 8 h incubation of USA300 with compound
[18] = read-out: IC50 for the inhibition of erythrocyte hemolysis, human RBCs, 8 h incubation of USA300 with compound

kinase domain of SaeS, sequence (Q840P7 118-351): as above

C=C(C)C(O)CC/C(C)=C/Cc1c(O)ccc(C(=O)CC(O)c2ccc(O)cc2)c1O (centres unmarked) [PM-56, 1-(2,4-Dihydroxy-3-(6-hydroxy-3,7-dimethylocta-2,7-dien-1-yl)phenyl)-3-hydroxy-3-(4-hydroxyphenyl)propan-1-one]
Kd [1]: 6.8 µM
inhibitory activity against SaeRS [2]: excellent inhibitory activity
IC50 [2]: 4.3 µM
IC90 [2]: 10 µM
survival rate of G. mellonella infected with the knockout strain ([3]; 2.131 mg/kg body weight every 12 h for 72 h): 90%
reduction in CFU compared to the wild type infection group ([3]; 2.131 mg/kg): 83.3%
cytotoxicity IC50 relative to IC50 for the GFP-reporter inhibition [4]: 7 fold
IC50 [4]: 28.9 µM
inhibition of phosphotransferase (PT) activity [5]: no inhibition was observed
binding to SaeS by 1D CPMG and 1D STD NMR [6]: specifically binds to SaeS
decline of bacterial burden ([7]; 4.3 mg/kg): 1.84 log10 CFU/worm
bacterial burden compared to the vehicle control [7]: sharp decrease
IC50 [8, 17]: 3.97 µM
protection from hemolysis ([8]; at 4 μM): visible protection
protection from hemolysis ([8]; at 8 μM): comparable level of protection to that of saeS knockout mutants
IC50 [8, 18]: 4 µM
visible toxicity to HeLa cells [9]: did not produce substantially visible toxicity
level of sarA transcription [10]: not significantly affected
survival compared to the vehicle control ([11]; 2.1 mg/kg every 12 h): 3.5 fold
survival ([11]; 3.2 mg/kg every 12 h): 90%
survival ([11]; 4.3 mg/kg every 12 h): complete survival
higher activity than 1 for AgrC [12]: 2.4 fold
IC50 [12]: 140 µM
IC50 [13]: 160 µM
higher activity than 1 for SaeS [13]: 1.4 fold
growth of S. aureus [14]: comparable growth to the control
bacterial growth ([14]; at up to 16 μM): did not disrupt bacterial growth

C=C(C)C(O)CC/C(C)=C/Cc1c(O)ccc(C(=O)/C=C/c2ccc(O)cc2)c1O (centres unmarked) [Compound 1, Xanthoangelol B]
Kd [1]: 40 µM
inhibitory activity against SaeRS [2]: excellent inhibitory activity
IC50 [2]: 2.1 µM
IC90 [2]: 8 µM
survival rate of G. mellonella infected with the knockout strain ([3]; 2.042 mg/kg body weight every 12 h for 72 h): 70%
reduction in CFU compared to the wild type infection group ([3]; 2.042 mg/kg): 76.8%
cytotoxicity IC50 relative to IC50 for the GFP-reporter inhibition [4]: 10 fold
IC50 [4]: 19.7 µM
inhibition of phosphotransferase (PT) activity [5]: no inhibition was observed
decline of bacterial burden ([7]; 4.1 mg/kg): 1.72 log10 CFU/worm
bacterial burden compared to the vehicle control [7]: sharp decrease
IC50 [8, 17]: 4.62 µM
protection from hemolysis ([8]; at 4 μM): visible protection
protection from hemolysis ([8]; at 8 μM): comparable level of protection to that of saeS knockout mutants
IC50 [8, 18]: 4.6 µM
visible toxicity to HeLa cells [9]: did not produce substantially visible toxicity
level of sarA transcription [10]: not significantly affected
survival compared to the vehicle control ([11]; 2.0 mg/kg every 12 h): 3.5 fold
survival ([11]; 3.1 mg/kg every 12 h): 90%
survival ([11]; 4.1 mg/kg every 12 h): complete survival
lower activity for AgrC compared to that for SaeS [12]: 1.5 fold
IC50 [12]: 339 µM
IC50 [13]: 220 µM
growth of S. aureus [14]: severely inhibited
bacterial growth ([14]; at up to 8 μM): did not disrupt bacterial growth
concentration from which growth inhibition started ([14]; growth followed up to 20 h): ≥ 16 µM

4-hydroxyderricin
antibacterial activity against Gram-positive bacteria [15]: shown to have an antibacterial activity

CC(C)=CCC/C(C)=C/Cc1c(O)ccc(C(=O)/C=C/c2ccc(O)cc2)c1O [xanthoangelol]
inhibition of the SaeRS TCS [2]: did not show inhibitory activity
absorption and distribution after oral administration [16]: absorbed and distributed rapidly
absorption efficiency [16]: low
antibacterial activity against Gram-positive bacteria [15]: shown to have an antibacterial activity

COc1ccc(C(=O)/C=C/c2ccc(O)cc2)c(O)c1C/C=C(\C)CCC=C(C)C [xanthoangelol F, reference compound]
inhibition of the SaeRS TCS [2]: did not show inhibitory activity
